Publication PMC11161644, “An effective and rapidly degradable disinfectant from disinfection byproducts” (Nature Communications, 2024)
Read-outs that look alike come from different tables or passages of the source.

Legend:
E. coli (ATCC 25922) = assay: Inactivation of E. coli by disinfectants (membrane filter enumeration, contact time 5 min); format: cell-based, Escherichia coli; conditions: for log reduction at 475 µg/mL / EC (3-log inactivation) / log reduction at 115 µg/mL / log reduction at 1500 µg/mL / log reduction at 500 µg/mL / log reduction at 200 µg/mL: Escherichia coli, ATCC25922, 5 min; for log reduction at 475 µg/mL: dose 475 mg L-1; for log reduction at 475 µg/mL / log reduction at 115 µg/mL / log reduction at 1500 µg/mL / log reduction at 500 µg/mL / log reduction at 200 µg/mL: 5 min; for log reduction at 115 µg/mL: dose 115 mg L-1; for log reduction at 115 µg/mL / log reduction at 1500 µg/mL / log reduction at 500 µg/mL / log reduction at 200 µg/mL: read-out: Log (N/N0); for log reduction at 1500 µg/mL: dose 1500 mg L-1; for log reduction at 500 µg/mL: dose 500 mg L-1; for log reduction at 200 µg/mL: dose 200 mg L-1
Protocol: (§1) The chemicals and reagents used are detailed in Supplementary Note 1. The bacteria E. coli (ATCC 25922) and S. aureus (ATCC 25923) were cultured aerobically in Luria-Bertani broth (Sigma-Aldrich) and Tryptone Soya broth (Oxoid), respectively, at 37 °C for 16 h. The fungus C. albicans (ATCC 14053) was aerobically cultured in Sabouraud Dextrose broth (Difco) at 37 °C for 24 h. The microorganism cells were harvested by centrifugation at 1200×g (10 min, 4 °C) and resuspended in phosphate-buffered saline (PBS, 10 mM, pH 7.2). The disinfection experiments were performed in PBS solutions (10 mM, pH 7.2) with an initial concentration of E. coli, S. aureus, or C. albicans of 10^6‒10^7 cells per milliliter. A contact time of 5 min was used in accordance with the recommended time range of 0.25–10 min by USEPA for surface disinfection. Preliminary tests were conducted to determine the appropriate range of DBP doses. The appropriate dose range was established when the lowest and highest doses could achieve <1-log and >3-log of microbial inactivation, respectively. Based on the preliminary results, a series of doses of DBPs were added to the cell suspensions at room temperature (22 ± 1 °C). After the contact time of 5 min, the microorganism cells were enumerated following a membrane filter method. Briefly, serial 10-fold dilutions were conducted for the disinfected samples and the control sample without disinfection. Each diluted suspension was subjected to filtration through 0.45-μm membrane, which was then placed on a petri dish. The Petri dishes containing E. coli, S. aureus, and C. albicans were incubated in m-FC medium (Becton Dickinson & Co) at 45 °C for 24 h, in Tryptone Soya broth at 37 °C for 24 h and in Sabouraud Dextrose broth at 37 °C for 24 h, respectively. After incubation, the colony-forming units within a statistically reasonable range (20–80) were counted.
The impact of pH on the disinfection efficiencies of DBPs was examined. E. coli (ATCC 25922) was used as the test strain. The disinfection experiments were performed in 10 mM PBS solutions (pH 6.2, 7.2, and 8.2) with an initial E. coli concentration of 10^6‒10^7 cells per milliliter. To initiate the disinfection, a DBP was dosed with a bacteria suspension at a predetermined concentration. After the given contact time (5 min) at room temperature (22 ± 1 °C), the bacteria were enumerated following the membrane filter method. The bacteria concentrations in the 10 mM PBS solutions (pH 6.2, 7.2, and 8.2) without the addition of DBPs were used as controls.

[1] = tested on: bacteriophage MS2 (ATCC 15597-B1); assay: Inactivation of bacteriophage MS2 (double-layer agar, contact time 5 min); format: cell-based; conditions: for log reduction at 300 µg/mL: Escherichia phage MS2, ATCC15597, 5 min, dose 300 mg L-1, pH 7.2, contact time 5 min; for Dose for achieving 3-log inactivation of MS2 / MS2 inactivation rate constant k: pH 7.2, contact time 5 min
Protocol: The bacteriophage MS2 (ATCC 15597-B1) was propagated in the host E. coli (ATCC 15597) in Tryptone Soya broth at 37 °C for 16 h. The viruses were separated from the bacterial debris and purified by centrifuging the phage culture (4000×g, 10 min, 4 °C) and filtering the lysate with a 0.2 μm polyethersulfone sterile filter. The filtrate was then diluted in PBS (10 mM, pH 7.2) to an initial MS2 concentration of 10^9‒10^10 plaque-forming units […]. To initiate the disinfection experiments, a series of DBP doses were added to the MS2 suspension at room temperature (22 ± 1 °C). […] Briefly, serial 10-fold dilutions were conducted for the disinfected samples and the control sample without disinfection. Each dilution was mixed with the host E. coli in the soft agar and the mixture was immediately spread onto a Petri dish with Tryptone Soya agar. After the Petri dishes were incubated at 37 °C for 16 h, the plaque-forming units were counted. The disinfection experiments were performed in duplicate. All the materials for the disinfection experiments were autoclaved before use.

C. albicans (ATCC 14053) = assay: Inactivation of C. albicans (contact time 5 min); format: cell-based, Candida albicans; conditions: for log reduction at 300 µg/mL: Candida albicans, ATCC14053, 5 min, dose 300 mg L-1, pH 7.2, contact time 5 min; for C. albicans inactivation rate constant k / Dose for achieving 3-log inactivation of C. albicans: pH 7.2, contact time 5 min
Protocol: as §1

[2] = pH 7.2, read-out: Dose for achieving 3-log inactivation of E. coli
[3] = pH 7.2, contact time 5 min, read-out: Dose for achieving 3-log inactivation of E. coli
[4] = pH 7.2, MS2, read-out: Log (N/N0)
[5] = pH 7.2, C. albicans, read-out: Log (N/N0)

| SMILES | EC (3-log inactivation) (E. coli (ATCC 25922); [2]) | E. coli inactivation rate constant k (E. coli (ATCC 25922); pH 7.2, contact time 5 min) | EC (3-log inactivation) (E. coli (ATCC 25922); [3]) | log reduction at 300 µg/mL [1, 4] | log reduction at 300 µg/mL (C. albicans (ATCC 14053); [5]) | Dose for achieving 3-log inactivation of MS2 [1] | MS2 inactivation rate constant k [1] | C. albicans inactivation rate constant k (C. albicans (ATCC 14053)) | Dose for achieving 3-log inactivation of C. albicans (C. albicans (ATCC 14053)) | further results |
| --- | --- | --- | --- | --- | --- | --- | --- | --- | --- | --- |
| Oc1ccc(Cl)cc1Cl [2,4-DCPh, 2,4-Dichlorophenol] | 472 µg/mL | 0.30 L mg‒1 h‒1 |  |  |  |  |  |  |  | log reduction at 475 µg/mL (E. coli (ATCC 25922); pH 6.2, read-out: Log (N/N0), E. coli, pH 6.2): 3.02; log reduction at 475 µg/mL (E. coli (ATCC 25922); pH 7.2, read-out: Log (N/N0), E. coli, pH 7.2): 3.32; log reduction at 475 µg/mL (E. coli (ATCC 25922); pH 8.2, read-out: Log (N/N0), E. coli, pH 8.2): 3.29; log reduction at 300 µg/mL ([1]; pH 7.2, read-out: Log (N/N0), MS2): 0.549; log reduction at 300 µg/mL (C. albicans (ATCC 14053); pH 7.2, read-out: Log (N/N0), C. albicans): 0.236 |
| Oc1ccc(I)cc1I [2,4-DIPh, 2,4-diiodophenol] |  | 0.79 L mg‒1 h‒1 | 112 µg/mL | 2.17 | 5.49 |  |  |  |  | log reduction at 115 µg/mL (E. coli (ATCC 25922); pH 6.2, E. coli, pH 6.2): 3.33; log reduction at 115 µg/mL (E. coli (ATCC 25922); pH 7.2, E. coli, pH 7.2): 2.77; log reduction at 115 µg/mL (E. coli (ATCC 25922); pH 8.2, E. coli, pH 8.2): 3.02 |
| Oc1cc(Br)c(O)cc1Br [2,5-DBHQ, 2,5-dibromohydroquinone] |  | 0.03 L mg‒1 h‒1 | 1450 µg/mL |  |  |  |  |  |  | log reduction at 1500 µg/mL (E. coli (ATCC 25922); pH 6.2, E. coli, pH 6.2): 1.35; log reduction at 1500 µg/mL (E. coli (ATCC 25922); pH 7.2, E. coli, pH 7.2): 3.28; log reduction at 1500 µg/mL (E. coli (ATCC 25922); pH 8.2, E. coli, pH 8.2): 3.84 |
| Oc1cc(I)c(O)cc1I [2,5-DIHQ, 2,5-diiodohydroquinone] |  | 0.13 L mg‒1 h‒1 | 459 µg/mL | 1.11 | 0.393 |  |  |  |  | log reduction at 500 µg/mL (E. coli (ATCC 25922); pH 6.2, E. coli, pH 6.2): 1.76; log reduction at 500 µg/mL (E. coli (ATCC 25922); pH 7.2, E. coli, pH 7.2): 3.66; log reduction at 500 µg/mL (E. coli (ATCC 25922); pH 8.2, E. coli, pH 8.2): 5.5 |
| O=C1C=C(Cl)C(=O)C(Cl)=C1 [2,6-DCQ, 2,6-dichlorobenzoquinone] | 12.8 µg/mL | 5.50 L mg‒1 h‒1 |  |  |  | 46.1 mg L−1 | 14200 µL/min/mg | 31300 µL/min/mg | 35.4 mg L−1 | Disinfection efficiency relative to PCMX (ratio of doses for 3-log inactivation) (E. coli (ATCC 25922); E. coli, S. aureus, C. albicans and MS2, pH 7.2, 5 min): 9.0–22 times; Log reduction (Mean ± SD) (E. coli (ATCC 25922); E. coli, dose 7.5 mg L−1, pH 7.2, contact time 5 min): 0.76 ± 0.16; Log reduction (Mean ± SD) (E. coli (ATCC 25922); E. coli, dose 15 mg L−1, pH 7.2, contact time 5 min): 4.24 ± 0.22 |
| Cc1cc(O)cc(C)c1Cl [PCMX, para-chloro-meta-xylenol, reference compound] |  | 0.66 L mg‒1 h‒1 | 188 µg/mL | 1.03 | 3.49 | 1010 mg L−1 | 600 µL/min/mg | 3670 µL/min/mg | 320 mg L−1 | log reduction at 200 µg/mL (E. coli (ATCC 25922); pH 6.2, E. coli, pH 6.2): 4.19; log reduction at 200 µg/mL (E. coli (ATCC 25922); pH 7.2, E. coli, pH 7.2): 3.54; log reduction at 200 µg/mL (E. coli (ATCC 25922); pH 8.2, E. coli, pH 8.2): 5.56 |
